Source: the NIST ThermoML archive (doi:10.1016/j.jct.2017.03.006)

Test: xn = mol fraction of the nth substance listed
Settings: Liquid; for viscosity: Concentric cylinders viscometry; for mass density: Vibrating tube method

Cc1ccc(C)c(C)c1 [1,2,4-trimethylbenzene] + CCCCO
Settings	mass density [kg/m3]	viscosity [mPa·s]
313.15 K, 100 kPa, x2 = 0	859	–
313.15 K, 100 kPa, x2 = 0.1005	853.7	–
313.15 K, 100 kPa, x2 = 0.2261	847.1	–
313.15 K, 100 kPa, x2 = 0.2999	843.2	–
313.15 K, 100 kPa, x2 = 0.3966	837.7	–
313.15 K, 100 kPa, x2 = 0.5289	829.9	–
313.15 K, 100 kPa, x2 = 0.53	–	0.882
313.15 K, 100 kPa, x2 = 0.6367	822.9	–
313.15 K, 100 kPa, x2 = 0.637	–	0.994
313.15 K, 100 kPa, x2 = 0.7249	816.8	–
313.15 K, 100 kPa, x2 = 0.7975	–	1.254
313.15 K, 100 kPa, x2 = 0.7977	811.4	–
313.15 K, 100 kPa, x2 = 0.9131	802	1.516
313.15 K, 1000 kPa, x2 = 0	859.7	–
313.15 K, 1000 kPa, x2 = 0.1005	854.4	–
313.15 K, 1000 kPa, x2 = 0.2261	847.8	–
313.15 K, 1000 kPa, x2 = 0.2999	843.9	–
313.15 K, 1000 kPa, x2 = 0.3966	838.4	–
313.15 K, 1000 kPa, x2 = 0.5289	830.6	–
313.15 K, 1000 kPa, x2 = 0.6367	823.6	–
313.15 K, 1000 kPa, x2 = 0.7249	817.5	–
313.15 K, 1000 kPa, x2 = 0.7977	812	–
313.15 K, 1000 kPa, x2 = 0.9131	802.8	–
313.15 K, 5000 kPa, x2 = 0	862.6	–
313.15 K, 5000 kPa, x2 = 0.1005	857.3	–
313.15 K, 5000 kPa, x2 = 0.2261	850.7	–
313.15 K, 5000 kPa, x2 = 0.2999	846.9	–
313.15 K, 5000 kPa, x2 = 0.3966	841.5	–
313.15 K, 5000 kPa, x2 = 0.5289	833.7	–
313.15 K, 5000 kPa, x2 = 0.6367	826.7	–
313.15 K, 5000 kPa, x2 = 0.7249	820.6	–
313.15 K, 5000 kPa, x2 = 0.7977	815.2	–
313.15 K, 5000 kPa, x2 = 0.9131	805.9	–
313.15 K, 10000 kPa, x2 = 0	866	–
313.15 K, 10000 kPa, x2 = 0.1005	860.8	–
313.15 K, 10000 kPa, x2 = 0.2261	854.3	–
313.15 K, 10000 kPa, x2 = 0.2999	850.5	–
313.15 K, 10000 kPa, x2 = 0.3966	845.1	–
313.15 K, 10000 kPa, x2 = 0.5289	837.3	–
313.15 K, 10000 kPa, x2 = 0.6367	830.4	–
313.15 K, 10000 kPa, x2 = 0.7249	824.3	–
313.15 K, 10000 kPa, x2 = 0.7977	818.9	–
313.15 K, 10000 kPa, x2 = 0.9131	809.7	–
313.15 K, 20000 kPa, x2 = 0	872.6	–
313.15 K, 20000 kPa, x2 = 0.1005	867.5	–
313.15 K, 20000 kPa, x2 = 0.2261	861	–
313.15 K, 20000 kPa, x2 = 0.2999	857.2	–
313.15 K, 20000 kPa, x2 = 0.3966	851.9	–
313.15 K, 20000 kPa, x2 = 0.5289	844.1	–
313.15 K, 20000 kPa, x2 = 0.6367	837.3	–
313.15 K, 20000 kPa, x2 = 0.7249	831.2	–
313.15 K, 20000 kPa, x2 = 0.7977	825.8	–
313.15 K, 20000 kPa, x2 = 0.9131	816.7	–
313.15 K, 30000 kPa, x2 = 0	878.7	–
313.15 K, 30000 kPa, x2 = 0.1005	873.8	–
313.15 K, 30000 kPa, x2 = 0.2261	867.4	–
313.15 K, 30000 kPa, x2 = 0.2999	863.6	–
313.15 K, 30000 kPa, x2 = 0.3966	858.3	–
313.15 K, 30000 kPa, x2 = 0.5289	850.6	–
313.15 K, 30000 kPa, x2 = 0.6367	843.7	–
313.15 K, 30000 kPa, x2 = 0.7249	837.7	–
313.15 K, 30000 kPa, x2 = 0.7977	832.4	–
313.15 K, 30000 kPa, x2 = 0.9131	823.2	–
313.15 K, 40000 kPa, x2 = 0	884.5	–
313.15 K, 40000 kPa, x2 = 0.1005	879.6	–
313.15 K, 40000 kPa, x2 = 0.2261	873.2	–
313.15 K, 40000 kPa, x2 = 0.2999	869.5	–
313.15 K, 40000 kPa, x2 = 0.3966	864.1	–
313.15 K, 40000 kPa, x2 = 0.5289	856.5	–
313.15 K, 40000 kPa, x2 = 0.6367	849.7	–
313.15 K, 40000 kPa, x2 = 0.7249	843.7	–
313.15 K, 40000 kPa, x2 = 0.7977	838.4	–
313.15 K, 40000 kPa, x2 = 0.9131	829.4	–
313.15 K, 50000 kPa, x2 = 0	889.9	–
313.15 K, 50000 kPa, x2 = 0.1005	885	–
313.15 K, 50000 kPa, x2 = 0.2261	878.7	–
313.15 K, 50000 kPa, x2 = 0.2999	875	–
313.15 K, 50000 kPa, x2 = 0.3966	869.7	–
313.15 K, 50000 kPa, x2 = 0.5289	862.1	–
313.15 K, 50000 kPa, x2 = 0.6367	855.3	–
313.15 K, 50000 kPa, x2 = 0.7249	849.4	–
313.15 K, 50000 kPa, x2 = 0.7977	844	–
313.15 K, 50000 kPa, x2 = 0.9131	835	–
313.15 K, 60000 kPa, x2 = 0	895	–
313.15 K, 60000 kPa, x2 = 0.1005	890.2	–
313.15 K, 60000 kPa, x2 = 0.2261	883.9	–
313.15 K, 60000 kPa, x2 = 0.2999	880.2	–
313.15 K, 60000 kPa, x2 = 0.3966	875	–
313.15 K, 60000 kPa, x2 = 0.5289	867.4	–
313.15 K, 60000 kPa, x2 = 0.6367	860.6	–
313.15 K, 60000 kPa, x2 = 0.7249	854.7	–
313.15 K, 60000 kPa, x2 = 0.7977	849.3	–
313.15 K, 60000 kPa, x2 = 0.9131	840.3	–
313.15 K, 70000 kPa, x2 = 0	899.9	–
313.15 K, 70000 kPa, x2 = 0.1005	895.2	–
313.15 K, 70000 kPa, x2 = 0.2261	888.9	–
313.15 K, 70000 kPa, x2 = 0.2999	885.2	–
313.15 K, 70000 kPa, x2 = 0.3966	880	–
313.15 K, 70000 kPa, x2 = 0.5289	872.5	–
313.15 K, 70000 kPa, x2 = 0.6367	865.6	–
313.15 K, 70000 kPa, x2 = 0.7249	859.8	–
313.15 K, 70000 kPa, x2 = 0.7977	854.4	–
313.15 K, 70000 kPa, x2 = 0.9131	845.4	–
313.15 K, 80000 kPa, x2 = 0	904.6	–
313.15 K, 80000 kPa, x2 = 0.1005	899.9	–
313.15 K, 80000 kPa, x2 = 0.2261	893.7	–
313.15 K, 80000 kPa, x2 = 0.2999	890.1	–
313.15 K, 80000 kPa, x2 = 0.3966	884.8	–
313.15 K, 80000 kPa, x2 = 0.5289	877.3	–
313.15 K, 80000 kPa, x2 = 0.6367	870.5	–
313.15 K, 80000 kPa, x2 = 0.7249	864.6	–
313.15 K, 80000 kPa, x2 = 0.7977	859.3	–
313.15 K, 80000 kPa, x2 = 0.9131	850.3	–
313.15 K, 90000 kPa, x2 = 0	909	–
313.15 K, 90000 kPa, x2 = 0.1005	904.4	–
313.15 K, 90000 kPa, x2 = 0.2261	898.1	–
313.15 K, 90000 kPa, x2 = 0.2999	894.5	–
313.15 K, 90000 kPa, x2 = 0.3966	889.2	–
313.15 K, 90000 kPa, x2 = 0.5289	881.9	–
313.15 K, 90000 kPa, x2 = 0.6367	875.1	–
313.15 K, 90000 kPa, x2 = 0.7249	869.1	–
313.15 K, 90000 kPa, x2 = 0.7977	863.8	–
313.15 K, 90000 kPa, x2 = 0.9131	854.8	–
313.15 K, 100000 kPa, x2 = 0	913.3	–
313.15 K, 100000 kPa, x2 = 0.1005	908.7	–
313.15 K, 100000 kPa, x2 = 0.2261	902.5	–
313.15 K, 100000 kPa, x2 = 0.2999	898.8	–
313.15 K, 100000 kPa, x2 = 0.3966	893.6	–
313.15 K, 100000 kPa, x2 = 0.5289	886.2	–
313.15 K, 100000 kPa, x2 = 0.6367	879.4	–
313.15 K, 100000 kPa, x2 = 0.7249	873.5	–
313.15 K, 100000 kPa, x2 = 0.7977	868.2	–
313.15 K, 100000 kPa, x2 = 0.9131	859.2	–
313.15 K, 120000 kPa, x2 = 0	921.4	–
313.15 K, 120000 kPa, x2 = 0.1005	916.9	–
313.15 K, 120000 kPa, x2 = 0.2261	910.7	–
313.15 K, 120000 kPa, x2 = 0.2999	907.1	–
313.15 K, 120000 kPa, x2 = 0.3966	901.9	–
313.15 K, 120000 kPa, x2 = 0.5289	894.5	–
313.15 K, 120000 kPa, x2 = 0.6367	887.7	–
313.15 K, 120000 kPa, x2 = 0.7249	881.8	–
313.15 K, 120000 kPa, x2 = 0.7977	876.5	–
313.15 K, 120000 kPa, x2 = 0.9131	867.5	–
313.15 K, 140000 kPa, x2 = 0	928.9	–
313.15 K, 140000 kPa, x2 = 0.1005	924.3	–
313.15 K, 140000 kPa, x2 = 0.2261	918.7	–
313.15 K, 140000 kPa, x2 = 0.2999	914.5	–
313.15 K, 140000 kPa, x2 = 0.3966	909.6	–
313.15 K, 140000 kPa, x2 = 0.5289	902.2	–
313.15 K, 140000 kPa, x2 = 0.6367	895.5	–
313.15 K, 140000 kPa, x2 = 0.7249	889.6	–
313.15 K, 140000 kPa, x2 = 0.7977	884.4	–
313.15 K, 140000 kPa, x2 = 0.9131	875.3	–
323.15 K, 100 kPa, x2 = 0	–	0.62
323.15 K, 100 kPa, x2 = 0.1002	–	0.615
323.15 K, 100 kPa, x2 = 0.2327	–	0.631
323.15 K, 100 kPa, x2 = 0.3	–	0.653
323.15 K, 100 kPa, x2 = 0.3969	–	0.683
323.15 K, 100 kPa, x2 = 0.53	–	0.754
323.15 K, 100 kPa, x2 = 0.637	–	0.835
